These results are taken from patent US20240189387A1, “DOSING REGIMENS FOR HEMATOPOIETIC STEM CELL MOBILIZATION FOR STEM CELL TRANSPLANTS IN MULTIPLE MYELOMA PATIENTS” (Ensoma, Inc., priority 2021, published 2024).

Where two headings read alike, the source gives them in different places.

The subject of data set [1] is hematopoietic stem and progenitor cells. The note with it: U.S. Pat. No. 6,447,766; cited from earlier work.
Data set [2] has as its system CD34+ cells. Description: Phase 1 trial: mobilization of CD34+ cells into peripheral blood (multicolor flow cytometry). The settings on record: for % ≥20/μL peak CD34+ / Peak CD34+ (#/μL) Median (range): Day 1. Background: A flow cytometer gives signals particle by particle.
In data set [3] the test system is graft cell subsets (T cells, B cells, NK cells). The settings on record: cited from earlier work.
A short description of data set [4]: Phase 1 trial: treatment emergent adverse events. The note with it: Part B, combination n = 38; plerixafor n = 14.
Source text: FIG. 1A depicts the treatments provided to patient cohorts enrolled in Part A and Part B of a Phase 1 clinical trial as well as measurable endpoints.
Patients were monitored for emergent adverse events.
The subject of data set [5] is CD34+ cells. The note with it: historical plerixafor alone data, Devine et al., Blood 2008; cited from earlier work.
In data set [6] the test system is CD34+CD90+CD45RA− cells. Briefly: Phase 1 trial: mobilization of CD34+CD90+CD45RA− cells into peripheral blood (flow cytometry). The note with it: plerixafor alone.
[7] abbreviates: Part B, plerixafor (pooled placebo + plerixafor), listed as plerixafor.
Where [8] appears, read: Part C, 8 patients on combination (0.03 or […]), plerixafor alone.
The mark [9] stands for this setting: Part C, plerixafor (pooled placebo + plerixafor), listed as plerixafor.
The mark [10] stands for this setting: Chen et al., 2019, 2 LP plerixafor, 1 LP G-CSF.
Setting [11] is: Devine et al, 2008, yield of 1 LP.

For “Gro-β T N65D: SEQ ID NO: 4; Gro-β T with aspartic acid in place of asparagine at position 65”, the “potency (hematopoietic stem and progenitor cell mobilization) relative to Gro-β T” value in data set [1] is “substantially greater than that of Gro-β T”.
For `c1cc(CN2CCCNCCNCCCNCC2)ccc1CN1CCCNCCNCCCNCC1` [Plerixafor, 1,1′-[1,4-phenylenebis(methylene)]-bis-1,4,8,11-tetra-azacyclotetradecane], the “% ≥40/μL peak CD34+” value in data set [2] (Part B, plerixafor) is on record as 21%. In data set [2] (Part B, plerixafor (pooled placebo + plerixafor)), the “% ≥20/μL peak CD34+” value is 64%. Further, in data set [2] (setting [7]), the “% ≥20/μL peak CD34+” value came to 64% and the “Peak CD34+ (#/μL) Median (range)” value was 26 #/μL. In addition, in data set [2] (setting [8]), the “patients achieving peak CD34+ count of at least 20 cells per microliter” value is given as “none” and the “patients achieving peak CD34+ count of at least 40 cells per microliter” value is given as “none”. In addition, the “% ≥20/μL peak CD34+” value in data set [2] (Part C, plerixafor (pooled placebo + plerixafor)) is 0%. Further, in data set [2] (setting [9]), the “% ≥20/μL peak CD34+” value worked out at 0% and the “Peak CD34+ (#/μL) Median (range)” value is given as 18 #/μL. Besides, in data set [2] (Part C, plerixafor, first day), the “% ≥40/μL peak CD34+” value worked out at 0%. Further, the “Peak CD34+ (#/μL) Median” value in data set [2] (Part C, pooled placebo + plerixafor, Day 2) is recorded as 17 #/μL. Also, in data set [2] (Pooled B + C, plerixafor), the “% ≥40/μL peak CD34+” value was 14% and the “% ≥20/μL peak CD34+” value is 50%. The “% ≥20/μL peak CD34+” value in data set [2] (Pooled B + C, plerixafor, listed as plerixafor) is on record as 56%. In addition, in data set [2] (plerixafor alone), the “patients with peak CD34+ ≥20 cells/μL (%)” value is 50% (7/14) and the “patients with peak CD34+ ≥40 cells/μL (%)” value is listed as 14% (2/14). The “graft CD34+ Median (range)” value in data set [3] (Chen et al., 2019, 2 LP for plerixafor (N = 50+), 1 LP for G-CSF (N = 112+)) is 4.7 (0.9-9.6) ×10^6/kg. Also, in data set [3] (setting [10]), the “graft CD3+ Median (range)” value is listed as 6.0 (2.7-13.0) ×10^8/kg, the “graft CD4+ Median (range)” value is listed as 3.6 (2.0-9.4) ×10^8/kg, the “graft CD8+ Median (range)” value is 2.2 (0.5-5.0) ×10^8/kg and the “graft CD19+ Median (range)” value was 1.5 (0.2-7.4) ×10^8/kg. For the same compound, the “graft CD56+ Median (range)” value in data set [3] (setting [10]) was 0.4 (0.0-1.1) ×10^8/kg. For the same compound, in data set [3] (setting [11]), the “graft CD3+ Median (range)” value is 4.6 (1.5-7.8) ×10^8/kg, the “graft CD4+ Median (range)” value is listed as 3.2 (1-5.7) ×10^8/kg, the “graft CD8+ Median (range)” value was 1.3 (0.4-3.4) ×10^8/kg and the “graft CD19+ Median (range)” value is 1.0 (0.2-2.4) ×10^8/kg. In data set [3] (setting [11]), the “graft CD56+ Median (range)” value was 0.3 (0.1-1.0) ×10^8/kg. The “graft CD34+ Median (range)” value in data set [3] (Devine et al, 2008, yield of 1 LP, plerixafor N = 24, G-CSF N = 8) is given as 2.9 (1.2-6.3) ×10^6/kg. In addition, in data set [4], the Abdominal discomfort/pain is listed as 4 (28.6) n (%), the “Back pain/Musculoskeletal pain” value was 2 (14.3) n (%), the Diarrhea is listed as 5 (35.7) n (%) and the Dizziness was 1 (7.1) n (%). In addition, in data set [4], the Dysgeusia is given as 2 (14.3) n (%), the Headache was 1 (7.1) n (%), the Nausea is 2 (14.3) n (%) and the Vomiting was 1 (7.1) n (%). Also, in data set [5], the “patients with peak CD34+ ≥20 cells/μL (%)” value is 28% (7/25) and the “patients with peak CD34+ ≥40 cells/μL (%)” value is 4% (1/25). Besides, in data set [6], the “median peak CD34+CD90+CD45RA− cells” value came to 8 cells/μL.
